Columns and labels:
Assay type in all cases: in vivo
[1] = system: Japanese bulrush (Scirpus juncoides Roxb.); test: Test Example 1: herbicidal effect by soil application to paddy field; conditions: paddy field soil application; active ingredient 1,000 g per 1 hectare; wettable powder added dropwise to water surface the day after sowing; examined on the 21st day after application
How it was run: (§1)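 Under greenhouse conditions, seeds sown on puddled paddy soil in 100 cm2 pots under 3 cm of standing water received the test compound; injury was assessed with a standard scoring scheme three weeks (day 21) after treatment.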

[2] = system: early watergrass (Echinochloa oryzicola Vasing); test: as above; conditions: paddy field soil application; active ingredient 1,000 g per 1 hectare; wettable powder added dropwise to water surface the day after sowing; examined on the 21st day after application
How it was run: as §1

[3] = system: heartshape false pickerelweed (Monochoria vaginalis (Burm.f.) C.Presl); test: as above; conditions: paddy field soil application; active ingredient 1,000 g per 1 hectare; wettable powder added dropwise to water surface the day after sowing; examined on the 21st day after application
How it was run: as §1

[4] = system: barnyardgrass (Echinochloa crus-galli (L.) P. Beauv. var. crus-galli); test: Test Example 2: herbicidal effect by soil application to upland field; conditions: soil surface spray, upland field soil, 1,000 g active ingredient per hectare, 21st day after application
How it was run: (§2)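 Greenhouse pot assay with field soil. Freshly sown seeds were covered with soil, then the surface was sprayed with diluted wettable powder: 1,000 g a.i./ha, 1,000 L/ha. Herbicidal effect scored at day 21 by standard criteria.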

[5] = system: green foxtail (Setaria viridis (L.) P. Beauv.); test: as above; conditions: soil surface spray, upland field soil, 1,000 g active ingredient per hectare, 21st day after application
How it was run: as §2

[6] = system: slender amaranth (Amaranthus viridis L.); test: as above; conditions: soil surface spray, upland field soil, 1,000 g active ingredient per hectare, 21st day after application
How it was run: as §2

[7] = system: velvetleaf (Abutilon theophrasti medicus); test: as above; conditions: soil surface spray, upland field soil, 1,000 g active ingredient per hectare, 21st day after application
How it was run: as §2

[8] = system: barnyardgrass (Echinochloa crus-galli (L.) P. Beauv. var. crus-galli); test: Test Example 3: herbicidal effect by application to upland field (foliage treatment); conditions: foliage treatment, plants grown two weeks, 1,000 g active ingredient per hectare, 14th day after application
How it was run: (§3)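 Foliage treatment, greenhouse: 2-week-old plants in field soil; wettable powder in water sprayed over the top at 1,000 g a.i./ha (1,000 L/ha); rating on day 14 post-application.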

[9] = system: green foxtail (Setaria viridis (L.) P. Beauv.); test: as above; conditions: foliage treatment, plants grown two weeks, 1,000 g active ingredient per hectare, 14th day after application
How it was run: as §3

[10] = system: slender amaranth (Amaranthus viridis L.); test: as above; conditions: foliage treatment, plants grown two weeks, 1,000 g active ingredient per hectare, 14th day after application
How it was run: as §3

[11] = system: velvetleaf (Abutilon theophrasti medicus); test: as above; conditions: foliage treatment, plants grown two weeks, 1,000 g active ingredient per hectare, 14th day after application
How it was run: as §3

SMILES | herbicidal effect, Scirpus juncoides Roxb. [1] | herbicidal effect, Echinochloa oryzicola Vasing [2] | herbicidal effect, Monochoria vaginalis (Burm. f.) C. Presl [3] | herbicidal effect (index), Barnyardgrass [4] | herbicidal effect (index), Green Foxtail [5] | herbicidal effect (index), Slender Amaranth [6] | herbicidal effect (index), Velvetleaf [7] | herbicidal effect (index), Barnyardgrass [8] | herbicidal effect (index), Green Foxtail [9] | herbicidal effect (index), Slender Amaranth [10] | herbicidal effect (index), Velvetleaf [11]
O=C1CCCC(O)=C1C(=O)c1ccc(C(F)(F)F)n(-c2cccc(F)c2)c1=O [I-92] | 5 (90% or more of herbicidal effect and crop phytotoxicity) | 5 (90% or more of herbicidal effect and crop phytotoxicity) | 5 (90% or more of herbicidal effect and crop phytotoxicity) | 5 (90% or more of herbicidal effect and crop phytotoxicity) | 5 (90% or more of herbicidal effect and crop phytotoxicity) | 5 (90% or more of herbicidal effect and crop phytotoxicity) | 5 (90% or more of herbicidal effect and crop phytotoxicity) | 5 (90% or more of herbicidal effect and crop phytotoxicity) | 5 (90% or more of herbicidal effect and crop phytotoxicity) | 5 (90% or more of herbicidal effect and crop phytotoxicity) | 5 (90% or more of herbicidal effect and crop phytotoxicity)
O=C1CCCC(O)=C1C(=O)c1ccc(C(F)(F)F)n(-c2ccc(F)cc2)c1=O [I-93] | 5 (90% or more of herbicidal effect and crop phytotoxicity) | 5 (90% or more of herbicidal effect and crop phytotoxicity) | 5 (90% or more of herbicidal effect and crop phytotoxicity) | 5 (90% or more of herbicidal effect and crop phytotoxicity) | 5 (90% or more of herbicidal effect and crop phytotoxicity) | 5 (90% or more of herbicidal effect and crop phytotoxicity) | 5 (90% or more of herbicidal effect and crop phytotoxicity) | 5 (90% or more of herbicidal effect and crop phytotoxicity) | 5 (90% or more of herbicidal effect and crop phytotoxicity) | 5 (90% or more of herbicidal effect and crop phytotoxicity) | 5 (90% or more of herbicidal effect and crop phytotoxicity)
N#Cc1cccc(-n2c(C(F)(F)F)ccc(C(=O)C3=C(O)CCCC3=O)c2=O)c1 [I-94] | 5 (90% or more of herbicidal effect and crop phytotoxicity) | 5 (90% or more of herbicidal effect and crop phytotoxicity) | 5 (90% or more of herbicidal effect and crop phytotoxicity) | 5 (90% or more of herbicidal effect and crop phytotoxicity) | 5 (90% or more of herbicidal effect and crop phytotoxicity) | 5 (90% or more of herbicidal effect and crop phytotoxicity) | 5 (90% or more of herbicidal effect and crop phytotoxicity) | 5 (90% or more of herbicidal effect and crop phytotoxicity) | 5 (90% or more of herbicidal effect and crop phytotoxicity) | 5 (90% or more of herbicidal effect and crop phytotoxicity) | 5 (90% or more of herbicidal effect and crop phytotoxicity)
N#Cc1ccc(-n2c(C(F)(F)F)ccc(C(=O)C3=C(O)CCCC3=O)c2=O)cc1 [I-95] | 5 (90% or more of herbicidal effect and crop phytotoxicity) | 5 (90% or more of herbicidal effect and crop phytotoxicity) | 5 (90% or more of herbicidal effect and crop phytotoxicity) | 5 (90% or more of herbicidal effect and crop phytotoxicity) | 5 (90% or more of herbicidal effect and crop phytotoxicity) | 5 (90% or more of herbicidal effect and crop phytotoxicity) | 5 (90% or more of herbicidal effect and crop phytotoxicity) | 5 (90% or more of herbicidal effect and crop phytotoxicity) | 5 (90% or more of herbicidal effect and crop phytotoxicity) | 5 (90% or more of herbicidal effect and crop phytotoxicity) | 5 (90% or more of herbicidal effect and crop phytotoxicity)
O=C1CCCC(O)=C1C(=O)c1ccc(C(F)(F)F)n(-c2ccc(Cl)c(Cl)c2)c1=O [I-98] | 5 (90% or more of herbicidal effect and crop phytotoxicity) | 5 (90% or more of herbicidal effect and crop phytotoxicity) | 5 (90% or more of herbicidal effect and crop phytotoxicity) | 5 (90% or more of herbicidal effect and crop phytotoxicity) | 5 (90% or more of herbicidal effect and crop phytotoxicity) | 5 (90% or more of herbicidal effect and crop phytotoxicity) | 5 (90% or more of herbicidal effect and crop phytotoxicity) | 5 (90% or more of herbicidal effect and crop phytotoxicity) | 5 (90% or more of herbicidal effect and crop phytotoxicity) | 5 (90% or more of herbicidal effect and crop phytotoxicity) | 5 (90% or more of herbicidal effect and crop phytotoxicity)
COc1ccc(-n2c(C(F)(F)F)ccc(C(=O)C3=C(O)CCCC3=O)c2=O)c(OC)c1 [I-99] | 5 (90% or more of herbicidal effect and crop phytotoxicity) | 5 (90% or more of herbicidal effect and crop phytotoxicity) | 5 (90% or more of herbicidal effect and crop phytotoxicity) | 5 (90% or more of herbicidal effect and crop phytotoxicity) | 4 (70 to less than 90% of herbicidal effect and crop phytotoxicity) | 5 (90% or more of herbicidal effect and crop phytotoxicity) | 5 (90% or more of herbicidal effect and crop phytotoxicity) | 5 (90% or more of herbicidal effect and crop phytotoxicity) | 4 (70 to less than 90% of herbicidal effect and crop phytotoxicity) | 5 (90% or more of herbicidal effect and crop phytotoxicity) | 5 (90% or more of herbicidal effect and crop phytotoxicity)

Reference: patent US8076487B2, “Pyridone derivative and herbicide” (Kumiai Chemical Industry Co., Ltd., priority 2006, dated 2011)
